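Tested at 5 concentrations; 48 h exposure; 96-well plates; endpoints linearly interpolated, else capped at highest concentration. Abbreviation: GI50, concentration required for 50% inhibition of growth. TGI: total growth inhibition.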
What was measured:
Experiment in all cases: NCI anticancer screen, dose series, 48 h
RPMI-8226 leukemia = tested on: RPMI-8226 leukemia
HCC-2998 colon = tested on: HCC-2998 colon
MOLT-4 leukemia = tested on: MOLT-4 leukemia
T-47D breast = tested on: T-47D breast
UO-31 renal = tested on: UO-31 renal
OVCAR-8 ovarian = tested on: OVCAR-8 ovarian
HCT-116 colon = tested on: HCT-116 colon
U251 CNS = tested on: U251 CNS
SR leukemia = tested on: SR leukemia
IGROV1 ovarian = tested on: IGROV1 ovarian
786-0 renal = tested on: 786-0 renal
K-562 leukemia = tested on: K-562 leukemia
SK-MEL-5 melanoma = tested on: SK-MEL-5 melanoma
KM12 colon = tested on: KM12 colon
A498 renal = tested on: A498 renal
BT-549 breast = tested on: BT-549 breast
HS 578T breast = tested on: HS 578T breast
CAKI-1 renal = tested on: CAKI-1 renal
TK-10 renal = tested on: TK-10 renal
SK-MEL-2 melanoma = tested on: SK-MEL-2 melanoma
NCI-H226 lung = tested on: NCI-H226 lung
HCT-15 colon = tested on: HCT-15 colon
MCF7 breast = tested on: MCF7 breast
CCRF-CEM leukemia = tested on: CCRF-CEM leukemia
DU-145 prostate = tested on: DU-145 prostate
NCI/ADR-RES ovarian = tested on: NCI/ADR-RES ovarian
HL-60(TB) leukemia = tested on: HL-60(TB) leukemia
HOP-92 NSCLC = tested on: HOP-92 NSCLC
SNB-19 CNS = tested on: SNB-19 CNS
ACHN renal = tested on: ACHN renal
SNB-75 CNS = tested on: SNB-75 CNS
NCI-H460 lung = tested on: NCI-H460 lung
EKVX NSCLC = tested on: EKVX NSCLC
RXF 393 renal = tested on: RXF 393 renal
COLO 205 colon = tested on: COLO 205 colon
HT29 colon = tested on: HT29 colon

C=C(C)[C@@H]1CC[C@]2(C(=O)O)CC[C@]3(C)[C@H](CC[C@@H]4[C@@]5(C)C[C@@H](CC#Cc6ccc(C(F)(F)F)cc6)[C@H](O)C(C)(C)[C@@H]5CC[C@]43C)[C@@H]12
GI50 (RPMI-8226 leukemia): 4.01 µM | TGI (RPMI-8226 leukemia): > 100 µM | GI50 (HCC-2998 colon): 8.48 µM | TGI (HCC-2998 colon): > 100 µM | GI50 (MOLT-4 leukemia): 2.75 µM | TGI (MOLT-4 leukemia): > 100 µM | GI50 (T-47D breast): 4.75 µM | TGI (T-47D breast): > 100 µM | GI50 (UO-31 renal): 6.52 µM | TGI (UO-31 renal): > 100 µM | GI50 (OVCAR-8 ovarian): 3.55 µM | TGI (OVCAR-8 ovarian): > 100 µM | GI50 (HCT-116 colon): 2.34 µM | TGI (HCT-116 colon): > 100 µM | GI50 (U251 CNS): 1.98 µM | TGI (U251 CNS): 4.75 µM | GI50 (SR leukemia): 3.23 µM | TGI (SR leukemia): > 100 µM | GI50 (IGROV1 ovarian): 3.56 µM | TGI (IGROV1 ovarian): > 100 µM | GI50 (786-0 renal): 3.2 µM | TGI (786-0 renal): 21.9 µM | GI50 (K-562 leukemia): 1.93 µM | TGI (K-562 leukemia): > 100 µM | GI50 (SK-MEL-5 melanoma): 8.97 µM | TGI (SK-MEL-5 melanoma): > 100 µM | GI50 (KM12 colon): 2.78 µM | TGI (KM12 colon): > 100 µM | GI50 (A498 renal): 3.16 µM | TGI (A498 renal): > 100 µM | GI50 (BT-549 breast): 10.9 µM | TGI (BT-549 breast): > 100 µM | GI50 (HS 578T breast): 3.88 µM | TGI (HS 578T breast): > 100 µM | GI50 (CAKI-1 renal): 2.63 µM | TGI (CAKI-1 renal): > 100 µM | GI50 (TK-10 renal): 6.11 µM | TGI (TK-10 renal): > 100 µM | GI50 (SK-MEL-2 melanoma): 2.08 µM | TGI (SK-MEL-2 melanoma): 4.58 µM | GI50 (NCI-H226 lung): 2.91 µM | TGI (NCI-H226 lung): > 100 µM | GI50 (HCT-15 colon): 3.95 µM | TGI (HCT-15 colon): > 100 µM | GI50 (MCF7 breast): 2.89 µM | TGI (MCF7 breast): > 100 µM | GI50 (CCRF-CEM leukemia): 2.98 µM | TGI (CCRF-CEM leukemia): > 100 µM | GI50 (DU-145 prostate): 3.52 µM | TGI (DU-145 prostate): > 100 µM | GI50 (NCI/ADR-RES ovarian): 47.3 µM | TGI (NCI/ADR-RES ovarian): > 100 µM | GI50 (HL-60(TB) leukemia): 6.2 µM | TGI (HL-60(TB) leukemia): > 100 µM | GI50 (HOP-92 NSCLC): 3.09 µM | TGI (HOP-92 NSCLC): 13.8 µM | GI50 (SNB-19 CNS): 3.29 µM | TGI (SNB-19 CNS): > 100 µM | GI50 (ACHN renal): 4.04 µM | TGI (ACHN renal): > 100 µM | GI50 (SNB-75 CNS): 1.73 µM | TGI (SNB-75 CNS): 5.14 µM | GI50 (NCI-H460 lung): 3.38 µM | TGI (NCI-H460 lung): > 100 µM | GI50 (EKVX NSCLC): 3.82 µM | TGI (EKVX NSCLC): > 100 µM | GI50 (RXF 393 renal): 2.39 µM | TGI (RXF 393 renal): 5.49 µM | GI50 (COLO 205 colon): 3.72 µM | TGI (COLO 205 colon): > 100 µM | GI50 (HT29 colon): 3.01 µM | TGI (HT29 colon): > 100 µM

Source: PubChem BioAssay (NCI)
